Experimental data reported in a melting point compilation (Tetko et al.; mined from patent text by program, amines drawn as free bases though some values may be those of a salt).

melting point [°C] | Compound
93 to 95 | CCc1sc2c(c1C(=O)CCCN1CCC(c3noc4cc(F)ccc34)CC1)CCN(C(C)=O)C2
65 to 70 | O=C(NCCCN1C(=O)C2(COc3cc4c(cc32)CCO4)c2ccccc21)c1ccccc1OC(F)(F)F (centres undefined)
147 to 162 | C=C1CC2C3CCC4=CC(=O)CCC4(C)C3=CCC2(C)C1(O)C(C)=O (centres undefined)
128 to 130 | COc1cccc2c1C(C)C(=O)N2 (centres undefined)
254 to 255 | N#Cc1c(-c2ccccc2)[nH]c(Cl)c1Cl
63 to 64 | CCN(CC)C(=O)c1ccc(OCOC)cc1-c1ccccc1
> 300 | CC(=O)Nc1ccc(-c2cc3[nH]c(=O)[nH]c3nc2C)cc1
> 300 | CS(=O)(=O)c1ccc(-c2cnn3c(O)ncnc23)cc1
118 to 121 | CCN(CC)CCNC(=O)N1CCCC(S(=O)(=O)c2ccc(OC)cc2)C1 (centres undefined)
80 to 83 | C=CC(=O)OCCNC(=O)CCc1cc(-n2nc3ccccc3n2)c(O)c(C(C)(C)C)c1
140 to 142 | COC(=O)C1=Cc2cc(-c3ccc(OC(C)C)cc3)ccc2S(=O)(=O)CC1
> 250 | CN1Cc2c(C(N)=O)ncn2-c2sccc2C1=O
119 to 121 | O=C1CCC(c2ccccc2F)=NN1
206 | N#Cc1ccccc1NC1=CC(=O)CCC1
198 to 200 | Cc1c(Cl)cccc1-n1nc(C(N)=O)nc1-c1ccccc1
250 | NC(=O)C1c2ccccc2-c2ccccc21
70 to 73 | CC(Oc1ccc2c(c1)C(O)C(Cc1cccc(C(=O)O)c1)CO2)c1ccc2ccccc2n1 (centres undefined)
70 to 73 | Fc1ccc2[nH]cc(CCCNCCOc3cccc4[nH]ccc34)c2c1
115 to 117 | COC(=O)c1nc(Br)ccc1O
141 to 145 | CC1(C)CON(Cc2ccc(N3C(=O)c4ccccc4C3=O)cc2Cl)C1=O
89 to 91 | O=C(O)COC(c1cccc(-c2nnc(Nc3ccc(Cl)c(Cl)c3)s2)c1)c1cccc(C(F)(F)F)c1 (centres undefined)
126 to 128 | CC(O)c1nccc(N2CCc3cc(-c4ccsc4)ccc3C2)n1 (centres undefined)
76 to 78 | CCCCCCCCSc1ccc(CC(CO)(CO)NC(C)=O)cc1
160 to 165 | c1cn(CCc2ccc3c(c2)Cc2c(-c4ccsc4)n[nH]c2-3)cn1

melting point [°C] | Compound
166 to 171 | CCCCCCCCCCCCCCOC(=O)n1cc(-c2ccccc2)nc1O
213 to 214 | COC(=O)c1ccccc1S(=O)(=O)NC(=O)Nc1nc(Cl)cn(C)c1=O
> 200 | CC1(C)COC(=O)C(C(=O)Nc2cccc(C(F)(F)F)c2)C1=O (centres undefined)
94 to 95 | CSc1cccc(-c2ccccc2NC(=N)N(C)C)c1
96 to 98 | CCOC(=O)c1c(CN(CC)CC)nc2sc3c(c2c1-c1ccc(OC)c(OC)c1)CCN(C(=O)c1ccc(Cl)cc1)C3
275 to 276 | O=C(C=Cc1ccccn1)Nc1nnn[nH]1
225 to 262 | Cn1ccc2ccc(N3Cc4c(cccc4[N+](=O)[O-])C3=O)cc21
189 to 192 | CC(O)(CF)C(=O)Nc1ccc(S(=O)(=O)c2ccccc2)cc1 (centres undefined)
221 to 222 | COc1ccnc(CCc2nc3cc(-c4ccc(S(=O)(=O)Nc5ccc(N(C)C)cc5)cc4)cnc3[nH]2)c1
330 to 335 | Cc1cc2c(cc1S(N)(=O)=O)S(=O)(=O)NC(c1cccnn1)=N2
78 | Cc1cc(C)nc(NC(=O)NS(=O)(=O)c2ccccc2-c2ccccc2)n1
137 to 139 | COC(=O)c1cccc(Oc2cccc(-c3nn(Cc4ccc(C(F)(F)P(=O)(O)O)c(Cl)c4)c(=Nc4ccc(Cl)c(Cl)c4)s3)c2)c1
195 to 198 | COCCN1CCN(CCc2ccc(Nc3ncc4c(n3)-c3ccccc3[C@H](c3ccc(F)cc3)C4)cc2)CC1
200 to 202 | CS(=O)(=O)c1ccc(-c2nn3c(-c4ccc(F)cc4)coc3c2-c2ccc(F)cc2)cc1
124 to 125 | CCCN1C(=O)C2(CC)CC(c3ccc(N)cc3)(C2)C1=O
139 to 143 | CN(C)c1ccc2c(c1)Sc1cc(N(C)C=O)ccc1N2C=O
65 to 66 | C=CCOc1cc(O)c(C=NO)c(Cl)c1
174 to 176 | O=C1N(CC2CCCO2)c2ccccc2C12COc1cc3c(cc12)OCCO3 (centres undefined)
66 to 70 | Cn1ccc2c(N3CCN(CC4CCc5ccccc5N4C(=O)C4CCCCC4)CC3)cccc21 (centres undefined)
142 | CCOC(=O)C1=C(N)NC(N)=C(C(=O)OCC)C1c1ccccc1[N+](=O)[O-]
250 to 252 | Cc1c(F)c(N2CCC(C)(CN)C2)cc2c1c(=O)c(C(=O)O)cn2C1CC1 (centres undefined)
140 to 148 | Cc1cc(-c2cccc(NC(=O)N[C@@H]3c4cc(C#N)ccc4OC(C)(C)[C@H]3O)c2)on1
> 250 | NC(=O)N1C(=O)C(C(=O)c2cc(Cl)cs2)c2nc(Cl)ccc21 (centres undefined)
146 to 152 | CCCCC(C(=O)OC)(C(=O)OC)c1nc(C)nc2c1c(SC)nn2-c1c(Cl)cc(Cl)cc1Cl

melting point [°C] | Compound
145 | CC(=O)NCC1Cc2cccc3cccc1c23 (centres undefined)
47 to 49 | Cc1ccc(I)c(CC(=O)N(C)C)c1
212 to 214 | Cn1c(COc2ccc(CC3SC(=O)NC3=O)cc2)nc2cc(C(F)(F)F)cnc21 (centres undefined)
120 to 121 | Clc1ccc(-c2nc(-n3ccnc3)oc2CCC2=NCCO2)cc1
176 | O=C(c1ccc(Cl)cc1)c1cccc(NC(=O)c2ccn3c2CSC3c2cccnc2)c1 (centres undefined)
177 to 179 | CCCCC1C=C(N)c2ncccc2N1CC(C)(C)O (centres undefined)
165 | CC(=O)OC1CSC(Oc2cnc(-c3ccncc3)c(F)c2)C(OC(C)=O)C1OC(C)=O (centres undefined)
63 to 66 | COc1cc(CO)c(OC)c2ccccc12
182 to 190 | CCOC(=O)c1cnc2c(c1O)CCCCCCCCCC2
152 to 154 | O=Cc1c[nH]cc1-c1cccc(Cl)c1Cl
260 | COc1ccc(N2CCN(c3ccc(-n4c(C)nnc4S)cc3)CC2)cc1
237 | CN(C(=O)c1cnn(C)c1C(=O)Nc1ccc2nc(-c3cccnc3)nn2c1)C1CC1
255 to 256 | CCCn1c(=O)c2[nH]c(/C=C/c3ccc(OC)c(C)c3OC)nc2n(CCC)c1=O
142 | O=C(O)[C@@H](Cc1ccccn1)Nc1cc(-c2ccc(OCc3ccccc3)cc2)ncn1
180 to 182 | CCOC(=O)c1cncc(C(=O)O)c1
137 to 138 | CC(C)c1ccc2c(c1)c(SCC1CC1)c(CC(C)(C)C(N)=O)n2Cc1ccc(Cl)cc1
194 to 195 | O=C(O)Cn1nnc(-c2ccc3c(c2)S(=O)(=O)c2ccccc2C3=O)n1
245 | CN1CCN(c2ccc(-c3[nH]nc4c3C(=O)c3c(NC(=O)NN5CCOCC5)cccc3-4)cc2)CC1
225 to 227 | CCSc1cc(C(=O)O)cc(S(N)(=O)=O)c1Oc1ccccc1
335 | O=c1[nH]c2ccc(Cl)cc2c(=O)n1N1CCOCC1
248 to 252 | Cc1c(C2CCCC2)c(=O)oc2cc(OCc3nnn[nH]3)cc(OCc3nnn[nH]3)c12
203 | OC1CSC(Oc2ccc(-c3cccnc3Cl)nc2)C(O)C1O (centres undefined)
83 to 84 | CCN(CC)S(=O)(=O)c1ccc(Oc2ccc(S(=O)(=O)C(F)(F)F)cc2)cc1
91 to 92 | COc1cc2c(cc1Cl)CCN(C)C[C@H]2c1ccccc1

melting point [°C] | Compound
232 to 234 | COCCc1c[nH]c(=O)[nH]c1=O
161 | O=C(OCC1CO1)c1c(Br)c(Br)c(C(=O)OCC2CO2)c(Br)c1Br (centres undefined)
127 to 130 | CC(=O)c1cc2c(c(Br)c1O)CCCC2
138 | C=CCOc1ccc2ccc(N)nc2n1
57 to 58 | CCCc1c(OCCCCCCCCCCC(=O)O)ccc(C(C)=O)c1O
151 to 153 | CC(C)=NOCCCCn1cnc2c(N)nc3c(c21)CCCC3
103 to 104 | COC1C=C(C)C(=O)CC(C)(C)C1OC(=O)c1ccc([N+](=O)[O-])c([N+](=O)[O-])c1 (centres undefined)
242 to 243 | NC(=S)Nc1ccc(Br)cn1
86 to 88 | CCCCc1nn(CC#N)c(=O)n1Cc1ccc(-c2ccccc2-c2nnn[nH]2)cc1
191 to 193 | CCOc1cc(C(CS(C)(=O)=O)N2C(=O)c3cccc(NS(C)(=O)=O)c3C2=O)ccc1OC (centres undefined)
120 to 121 | CCOc1nn(-c2ccc(C(F)(F)F)cn2)cc1CCCOc1cccc(CC(=O)O)c1F
101 to 102 | CC(F)(F)c1cccc(C[C@H](N)[C@H](O)c2ccc(F)cc2)c1 (racemic)
163 to 165 | CCCCc1c(C(=O)O)c2ccccc2n1C
125 to 127 | COc1c(OC(C)=O)c(C)c(CCCC(=O)O)c(OC(C)=O)c1OC
189 to 191 | COC(=O)c1ccc(NC(=N)Nc2nc(-c3ccccc3)cs2)cc1
116 to 118 | Cc1c(Br)ccc([N+](=O)[O-])c1C#N
35 to 37 | CCOC(=O)c1cnn2c1CCC2
165 to 167 | Cc1nc2c(-c3cccc(N4C[C@@H](C)O[C@@H](C)C4)c3)cnn2c(N)c1-c1cccc(Cl)c1
100 | COc1ccccc1N1CCN(CCCOC(=O)Cc2csc(NC(=O)c3ccc(F)cc3)n2)CC1
173 to 175 | O=C(O)COc1ccc(C(=O)c2cccc3ccccc23)c(Cl)c1Cl
197 to 200 | CCOC(=O)CCn1cnc2c(=O)[nH]cnc21
110 to 112 | CON1C(=O)[C@@H](NC(=O)OC(C)(C)C)[C@@H]1C1CCCCC1 (relative stereo)

Compound | melting point [°C]
CCCCCCC(C)(C)c1ccc([C@@H]2CCC[C@H](O)C2)c(O)c1 (relative stereo) | 109 to 110
CN1C(=O)CN=C(c2ccccc2)c2ccccc21 | 151 to 154
CC(C)CN(Cc1nc(-c2ncn3c2CN(C)C(=O)c2c(Cl)cccc2-3)no1)CC(C)C | 125 to 128
Cc1cccc2c(C3=CCN(C[C@H](O)COc4cccc5[nH]ccc45)CC3)c[nH]c12 | 155 to 158
CN(C)Cc1nc(-c2ncn3c2CN(C)C(=O)c2c(Cl)cccc2-3)no1 | 152 to 153
